From patent US11110082B2, “Tyrosine kinase inhibitors” (Rigel Pharmaceuticals, Inc., priority 2016, dated 2021) come the findings set out here.

The experiment concerns the target T1, MerTK (Homo sapiens, UniProt Q12866).
T1 construct: Seed HUVECs (10K cells/well) in EBM-2 complete media; host or cells: HUVEC (primary human umbilical vein endothelial cells)
T1 sequence (Q12866 21-999): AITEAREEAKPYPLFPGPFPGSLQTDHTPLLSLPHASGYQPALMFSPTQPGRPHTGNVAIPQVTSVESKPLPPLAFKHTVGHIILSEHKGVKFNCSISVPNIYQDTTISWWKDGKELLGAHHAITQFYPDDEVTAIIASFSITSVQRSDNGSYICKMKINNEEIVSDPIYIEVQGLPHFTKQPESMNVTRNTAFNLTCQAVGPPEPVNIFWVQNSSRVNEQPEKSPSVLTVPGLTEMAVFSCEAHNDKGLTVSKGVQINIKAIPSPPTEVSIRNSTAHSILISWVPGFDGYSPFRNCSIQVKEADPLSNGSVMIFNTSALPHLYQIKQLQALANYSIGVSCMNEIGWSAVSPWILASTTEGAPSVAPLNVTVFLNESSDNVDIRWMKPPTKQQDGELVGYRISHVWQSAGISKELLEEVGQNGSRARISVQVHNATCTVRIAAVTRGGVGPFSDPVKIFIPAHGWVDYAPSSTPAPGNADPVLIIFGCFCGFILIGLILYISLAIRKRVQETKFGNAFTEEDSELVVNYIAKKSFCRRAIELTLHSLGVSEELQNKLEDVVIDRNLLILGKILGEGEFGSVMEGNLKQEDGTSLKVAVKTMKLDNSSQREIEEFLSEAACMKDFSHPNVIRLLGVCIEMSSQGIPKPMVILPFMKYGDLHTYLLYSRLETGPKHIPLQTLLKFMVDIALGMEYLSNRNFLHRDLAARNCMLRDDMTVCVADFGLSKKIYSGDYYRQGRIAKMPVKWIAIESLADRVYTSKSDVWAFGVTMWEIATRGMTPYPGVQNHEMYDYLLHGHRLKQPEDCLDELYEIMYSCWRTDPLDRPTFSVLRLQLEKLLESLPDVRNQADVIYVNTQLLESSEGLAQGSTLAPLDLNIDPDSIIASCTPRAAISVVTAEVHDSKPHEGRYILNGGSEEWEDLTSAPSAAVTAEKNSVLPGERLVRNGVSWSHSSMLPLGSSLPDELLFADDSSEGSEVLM
Description: PAKT HTRF-HUVEC assay (pAkt Ser473 HTRF after anti-human MerTK-XL stimulation). The settings on record: HUVEC cells, 1 hour compound, stimulated with anti-human MerTK-XL 1 ug/mL for 10 minutes, read-out: inhibition of MerTK. In kind it is cell-based. The protocol:
Example 4: PAKT HTRF-HUVEC Assay Phospho Akt (Ser473) Assay kit-10,000 tests (Cisbio US, 64[…]) HUVEC cells (Lonza, CC-2519) Anti-human MerTK antibody (Clone 125518) (R&D Systems, MAB8912) Method Seed HUVECs (10K cells/well) in EBM-2 complete media (EBM-2 basal medium plus EGM-2 BulletKit supplements) overnight at 37° C., 5% CO2 in Costar 96-well white clear-bottom plates. Remove culture media and starve cells for 3-4 hours in 50 μL/well EBM-2 basal medium. Perform serial dilution of compounds in DMSO from 2.5 mM in 4-fold dilutions, and then dilute 1:125 in EBM-2 basal media. Mix 50 μL/well 2x compounds with 50 μL/well HUVECs in duplicate in Costar 96-well white clear-bottom plates. Incubate plates for 1 hour at 37° C., 5% CO2. Cross-link anti-human MerTK antibody to Biotin-SP-conjugated anti-mouse IgG antibody (1:1) to give final concentrations of 5 ug/mL of anti-human MerTK-XL. Stimulate HUVECs with 25 μL/well 5x anti-human MerTK-XL to give final concentrations of 1 ug/mL for 10 minutes at 37° C., 5% CO2. Completely remove media and lyse HUVECs with 40 uL/WELL per well of Cisbio HTRF 1× lysis buffer. Performed pAkt(Ser473) HTRF assay in ProxiPlate-384 Plus, white 384-shallow well microplate according to the vendor protocol and read plates with a SpectralMax Paradigm plate reader. Enter the HTRF values into Athena (Rigel) for curve fitting, EC50 calculation, and database storage.
(In general: In TR-FRET formats the signal depends on donor and acceptor labels being close together.)

Molecules are shown by their SMILES.

Consider `CN1CCN(Cc2ccc3c(c2)c(=O)n([C@H]2CC[C@H](O)CC2)c2nc(NCCC4CC4)ncc32)CC1` [Compound 26, trans-3-((2-Cyclopropylethyl)amino)-5-(4-hydroxycyclohexyl)-8-((4-methylpiperazin-1-yl)methyl)pyrimido[4,5-c]isoquinolin-6(5H)-one], for which the EC50 came out at 16.7 nM. In the case of `O=c1c2cc(CN3CCOCC3)ccc2c2cnc(NCCC3CC3)nc2n1[C@H]1CC[C@H](O)CC1` [Compound 27, trans-3-((2-Cyclopropylethyl)amino)-5-(4-hydroxycyclohexyl)-8-(morpholinomethyl)pyrimido [4,5-c]isoquinolin-6(5H)-one], the EC50 was 45.9 nM. With `CN1CCN(Cc2ccc3c(c2)c(=O)n(C2CCC(C)(O)CC2)c2nc(NCC4CC4)ncc32)CC1` (stereo not drawn) [Compound 28, trans-3-((Cyclopropylmethyl)amino)-5-(4-hydroxy-4-methylcyclohexyl)-8-((4-methylpiperazin-1-yl)methyl)pyrimido[4,5-c]isoquinolin-6(5H)-one], the EC50 stood at 36.6 nM.

As for `CN1CCN(Cc2ccc3c(c2)c(=O)n([C@H]2CC[C@](C)(O)CC2)c2nc(NCCC4CC4)ncc32)CC1` [Compound 29, trans-3-((2-Cyclopropylethyl)amino)-5-(4-hydroxy-4-methylcyclohexyl)-8-((4-methylpiperazin-1-yl)methyl)pyrimido[4,5-c]isoquinolin-6(5H)-one], the EC50 came out at 6.2 nM. Regarding `CC(C)N1CCN(Cc2ccc3c(c2)c(=O)n([C@H]2CC[C@H](O)CC2)c2nc(NCC4CC4)ncc32)CC1` [Compound 30, trans-3-((Cyclopropylmethyl)amino)-5-(4-hydroxycyclohexyl)-8-((4-isopropylpiperazin-1-yl)methyl)pyrimido[4,5-c]isoquinolin-6(5H)-one], the EC50 is 18.3 nM. As for `CC(C)N1CCN(Cc2ccc3c(c2)c(=O)n([C@H]2CC[C@](C)(O)CC2)c2nc(NCC4CC4)ncc32)CC1` [Compound 31, trans-3-((Cyclopropylmethyl)amino)-5-(4-hydroxy-4-methylcyclohexyl)-8-((4-isopropylpiperazin-1-yl)methyl)pyrimido[4,5-c]isoquinolin-6(5H)-one], the EC50 stood at 12.5 nM. For `CC(C)N1CCN(Cc2ccc3c(c2)c(=O)n(C2CCC(C)(O)CC2)c2nc(NCCC4CC4)ncc32)CC1` (stereo not drawn) [Compound 32, trans-3-((2-Cyclopropylethyl)amino)-5-(4-hydroxy-4-methylcyclohexyl)-8-((4-isopropylpiperazin-1-yl)methyl)pyrimido[4,5-c]isoquinolin-6(5H)-one], the EC50 worked out at 6.5 nM.

As for `CC(C)N1CCN(Cc2ccc3c(c2)c(=O)n([C@H]2CC[C@H](O)CC2)c2nc(NCC4CCC4)ncc32)CC1` [Compound 33, trans-3-((Cyclobutylmethyl)amino)-5-(4-hydroxycyclohexyl)-8-((4-isopropylpiperazin-1-yl)methyl)pyrimido[4,5-c]isoquinolin-6(5H)-one], the EC50 turned out to be 4.6 nM. As for `CN1CCN(Cc2ccc3c(c2)c(=O)n([C@H]2CC[C@](C)(O)CC2)c2nc(NCC4CCC4)ncc32)CC1` [Compound 34, trans-3-((Cyclobutylmethyl)amino)-5-(4-hydroxy-4-methylcyclohexyl)-8-((4-methylpiperazin-1-yl)methyl)pyrimido[4,5-c]isoquinolin-6(5H)-one], the EC50 was determined as 7.4 nM. `O=c1c2cc(CN3CCN(C4COC4)CC3)ccc2c2cnc(NCC3CC3)nc2n1[C@H]1CC[C@H](O)CC1` [Compound 35, trans-3-((Cyclopropylmethyl)amino)-5-(4-hydroxycyclohexyl)-8-((4-(oxetan-3-yl)piperazin-1-yl)methyl)pyrimido[4,5-c]isoquinolin-6(5H)-one]: the EC50 came to 46.7 nM. Regarding `C[C@]1(O)CC[C@H](n2c(=O)c3cc(CN4CCN(C5COC5)CC4)ccc3c3cnc(NCC4CC4)nc32)CC1` [Compound 36, trans-3-((Cyclopropylmethyl)amino)-5-(4-hydroxy-4-methylcyclohexyl)-8-((4-(oxetan-3-yl)piperazin-1-yl)methyl)pyrimido[4,5-c]isoquinolin-6(5H)-one], the EC50 stood at 16.8 nM.
